# Assay results taken from article PMC7962978, “PSMA-D4 Radioligand for Targeted Therapy of Prostate Cancer: Synthesis, Characteristics and Preliminary Assessment of Biological Properties” (International Journal of Molecular Sciences, 2021).
# Key:
# [1] = Lipophilicity determination (logD), shake-flask method; type: physicochemical; details: n-octanol / PBS pH 7.4, shake-flask
# Experimental: The partition coefficient logD of the radioligands was determined by the shake-flask method. The solution of 10 to 50 MBq of radiolabeled PSMA ligands (D-4, 617, 11, I&T) in 1.0 mL of phosphate-buffered saline (PBS, pH 7.4) was added to 1.0 mL of presaturated n-octanol solution (n = 3). Vials were shaken vigorously for 10 min. To achieve quantitative phase separation, the vials were centrifuged at 1600 rpm for 5 min. The radioactivity concentration in a defined volume of both the aqueous and the organic phase in six replicates each was measured in a γ-counter (Wizard 1470, Wallac, Turku, Finland). The partition coefficient was calculated as the logarithm of the ratio between counts per minute (cpm) measured in the n-octanol phase to the PBS phase counts.
# LNCaP cells = test: Cell uptake (total binding) and internalization in LNCaP cells; type: cell-based, human; details: 37 °C, 2 h
# Experimental: To determine cell uptake and internalization of [^177Lu]Lu-PSMA-D4 and [^90Y]Y-PSMA-D4, LNCaP cells (5 × 10^5 cells well^−1) were incubated in un-supplemented RPMI 1640 medium with one concentration of tested radioligands on 12-well plates in 37 °C per 2 h. After the appropriate time, the medium was removed, and cells were washed twice using phosphate buffer saline (PBS, IITD PAN, Wroclaw, Poland). The cells were treated twice with 1 mL of 50 mM glycine in 0.1 M NaCl at a pH of 2.8 and incubated for 5 min at room temperature to collect extracellularly bound compound. The internalization was determined by measuring the radioactivity of 1mL of 1 M NaOH used for cell lysis. Total binding was calculated as a sum of the membrane and internalized fractions measured using Wallac Wizard 1470 γ counter. As a control, [^177Lu]Lu-PSMA-617 and [^68Ga]Ga-PSMA-11 were used.
# PSMA antigen = biological target: T1, PSMA antigen (Homo sapiens, UniProt Q04609); test: Saturation radioligand binding assay on LNCaP (PSMA positive) and PC3 (PSMA negative) cell membranes
# T1 construct: PSMA antigen expressed on LNCaP cell membranes; endogenous in cells; host or cells: LNCaP cell membranes (PC3 membranes as PSMA-negative control)
# Experimental: The equilibrium constant (KD) was determined by a saturation binding experiment performed in PSMA positive LNCaP and PSMA negative PC3 cell membranes isolated according to the procedure developed by Fichna et al.. The 50 mcL of LNCaP and PC3 cell membranes were seeded on special MultiScreen™ 96 well filter plates (Merck, Warsaw, Poland) and incubated for 2 h with increasing concentration of [^177Lu]Lu-PSMA-D4, [^90Y]Y-PSMA-D4, and […] (0.016–194 nM) at 37 °C. After incubation, the unbound radiocomplexes were filtered under vacuum, and the membranes were washed twice using PBS. The filters containing membranes with the attached radiotracer were extruded into tubes using MultiScreen Multile Punch (Merck). The number of associated inhibitors was determined by measuring the radioactivity of squeezed filters using Wallac Wizard 1470 γ counter. The KD and Bmax were calculated by nonlinear regression using the GraphPad Prism statistic program.
# LNCaP tumor-bearing mice [2] = test: Ex vivo biodistribution in mice bearing LNCaP tumor
# Experimental: An experimental tumor murine model was induced using LNCaP cell, which grew to 80–90% confluence before trypsinization and formulation in Matrixgel™ Basement Membrane Matrix (Bedford, MA, USA) for implantation into mice. The mice were subcutaneously injected in the shoulder with 200 mcL bolus containing a suspension of 10^6 freshly harvested cell line LNCaP in Matrixgel™. This procedure was performed under anaesthesia with 2% isoflurane. The animals were kept under pathogen-free condition, and experiments were performed 2–3 weeks later when a tumor reached a volume of approximately 150 ± 60 mm^3. Then, the animals were randomized into two groups (25 mice per group, five mice per time point): Group 1, treated with a single intravenous injection of [^90Y]Y-PSMA-D4 (0.1 mL, 0.1 mcg, 15.5 MBq, SA 16.7 GBq mg^−1 = 17.2 GBq mcmol^−1) and Group 2, treated with a single intravenous injection of [^47Sc]Sc-PSMA-D4 (0.1 mL, 0.19 mcg, 10 MBq, SA 4.8 GBq mg^−1 = 4.57 GBq mcmol^−1).
# At 1, 2, 4, 6, 24, and 48 h after injection, the animals were euthanized by cervical dislocation and dissected. Selected organs and tissues were assayed for their radioactivity and weighted. The physiological distribution was calculated and expressed in terms of the percentage of administrated radioactivity found in each of the selected organs or tissues per gram (%ID g^−1).
# Results are provided as mean ± SD. The results of physiological distribution are presented as a percentage of the dose administered per gram of tissue (%ID g^−1) as average value with standard deviation (%ID g^−1; mean ± standard deviation (SD)) with n representing the number of animals per group. Data were statistically analyzed using GraphPad Prism version 8.0.0 for Window.
# LNCaP tumor-bearing mice [3] = test: Cerenkov luminescence imaging (CLI) of LNCaP tumor-bearing mice; type: in vivo; details: 2-48 h p.i.
# Experimental: The PhotonIMAGER Optima system (Biospace Lab, Nesles-la-Vallée, France) was used for the non-invasive detection, localization, and quantification of yttrium-90 signal from live animals based on Cerenkov luminescence imaging. It was feasible due to high-energy β^− particle emission produces continuous spectrum light photons or Cerenkov radiation. Optical imaging of [^90Y]Y-PSMA-D4 in LNCaP cell grafted mice was performed contemporaneously with ex vivo studies. The animals were placed individually in an induction chamber, where anaesthesia was induced with 5% isoflurane (Iso-Vet, Piramal Healthcare UK Limited, West Drayton, UK) in 100% oxygen with a delivery rate of 2 L min^−1 until loss of righting reflex. After induction, the animals were moved to the optical chamber. Anaesthesia was then maintained with 1.5–2% isoflurane in 100% oxygen with a flow of 1.5 L min^−1 administered through a facemask connected to a coaxial circuit. Body temperature was maintained at 37 °C by a heating table inside the chamber. At recovery, all animals received 100% oxygen until recovery of righting reflex. No mice were restrained during anaesthesia.
# T1 sequence (Q04609 whole entry): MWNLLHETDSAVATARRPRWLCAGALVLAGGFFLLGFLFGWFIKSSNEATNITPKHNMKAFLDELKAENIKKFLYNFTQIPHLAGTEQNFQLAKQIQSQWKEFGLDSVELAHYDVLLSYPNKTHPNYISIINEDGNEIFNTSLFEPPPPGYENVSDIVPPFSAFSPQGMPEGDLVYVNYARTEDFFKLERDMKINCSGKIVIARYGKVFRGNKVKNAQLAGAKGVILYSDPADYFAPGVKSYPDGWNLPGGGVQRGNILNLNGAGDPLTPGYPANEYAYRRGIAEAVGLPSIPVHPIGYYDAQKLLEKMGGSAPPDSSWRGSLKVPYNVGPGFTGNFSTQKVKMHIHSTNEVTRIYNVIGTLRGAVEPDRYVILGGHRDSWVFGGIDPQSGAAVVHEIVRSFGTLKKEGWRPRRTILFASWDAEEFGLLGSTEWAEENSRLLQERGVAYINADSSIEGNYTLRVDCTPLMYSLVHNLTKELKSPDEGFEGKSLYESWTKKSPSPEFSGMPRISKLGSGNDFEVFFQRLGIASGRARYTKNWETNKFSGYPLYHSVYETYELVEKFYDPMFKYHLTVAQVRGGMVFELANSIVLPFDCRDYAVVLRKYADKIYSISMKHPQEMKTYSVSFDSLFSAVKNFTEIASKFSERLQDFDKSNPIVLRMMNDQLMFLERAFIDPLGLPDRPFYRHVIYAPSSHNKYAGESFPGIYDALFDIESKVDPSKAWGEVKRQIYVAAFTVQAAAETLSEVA
compound,measurement,setting,value
O=C([O-])CN1CCN(CC(=O)[O-])CCN(CC(=O)NCC2CCC(C(=O)NC(Cc3c[nH]c4ccccc34)C(=O)NCCCCC(NC(=O)NC(CCC(=O)O)C(=O)O)C(=O)O)CC2)CCN(CC(=O)[O-])CC1.[90Y+3] (centres unmarked) [[^90Y]Y-PSMA-D4],logD,[1],−5.18 ± 0.04
same,Internalization,LNCaP cells,35.4%
same,Total Binding,LNCaP cells,16.8%
same,Kd,"PSMA antigen; LNCaP cell membranes, 2 h, 37 °C",4.5 ± 2.1 nM
same,Specific Binding,PSMA antigen; total binding on LNCaP minus non-specific binding on PC3 membranes,99.9 ± 0.1%
same,T/B (ratio tumor to blood),LNCaP tumor-bearing mice [2]; 2 h after i.v. injection,323.7
same,T/K (ratio tumor to kidneys),LNCaP tumor-bearing mice [2]; 2 h after i.v. injection,7.6
same,T/M (ratio tumor to muscle),LNCaP tumor-bearing mice [2]; 2 h after i.v. injection,97.0
same,blood,LNCaP tumor-bearing mice [2]; 2 h after i.v. injection,0.06 ± 0.01 %ID g^−1
same,kidneys,LNCaP tumor-bearing mice [2]; 2 h after i.v. injection,2.70 ± 0.20 %ID g^−1
same,large intestine,LNCaP tumor-bearing mice [2]; 2 h after i.v. injection,0.12 ± 0.05 %ID g^−1
same,liver,LNCaP tumor-bearing mice [2]; 2 h after i.v. injection,0.08 ± 0.00 %ID g^−1
same,muscle,LNCaP tumor-bearing mice [2]; 2 h after i.v. injection,0.21 ± 0.13 %ID g^−1
same,small intestine,LNCaP tumor-bearing mice [2]; 2 h after i.v. injection,0.32 ± 0.13 %ID g^−1
same,spleen,LNCaP tumor-bearing mice [2]; 2 h after i.v. injection,0.19 ± 0.06 %ID g^−1
same,stomach,LNCaP tumor-bearing mice [2]; 2 h after i.v. injection,0.10 ± 0.04 %ID g^−1
same,tumor,LNCaP tumor-bearing mice [2]; 2 h after i.v. injection,20.24 ± 5.52 %ID g^−1
same,urine,LNCaP tumor-bearing mice [2]; 2 h after i.v. injection,96.08 ± 0.53 %ID
same,T/B (ratio tumor to blood),LNCaP tumor-bearing mice [2]; 4 h after i.v. injection,312.9
same,T/K (ratio tumor to kidneys),LNCaP tumor-bearing mice [2]; 4 h after i.v. injection,9.7
same,T/M (ratio tumor to muscle),LNCaP tumor-bearing mice [2]; 4 h after i.v. injection,324.4
same,blood,LNCaP tumor-bearing mice [2]; 4 h after i.v. injection,0.05 ± 0.03 %ID g^−1
same,kidneys,LNCaP tumor-bearing mice [2]; 4 h after i.v. injection,1.70 ± 0.13 %ID g^−1
same,large intestine,LNCaP tumor-bearing mice [2]; 4 h after i.v. injection,0.32 ± 0.16 %ID g^−1
same,liver,LNCaP tumor-bearing mice [2]; 4 h after i.v. injection,0.08 ± 0.01 %ID g^−1
same,muscle,LNCaP tumor-bearing mice [2]; 4 h after i.v. injection,0.05 ± 0.02 %ID g^−1
same,small intestine,LNCaP tumor-bearing mice [2]; 4 h after i.v. injection,0.30 ± 0.14 %ID g^−1
same,spleen,LNCaP tumor-bearing mice [2]; 4 h after i.v. injection,0.17 ± 0.06 %ID g^−1
same,stomach,LNCaP tumor-bearing mice [2]; 4 h after i.v. injection,0.11 ± 0.05 %ID g^−1
same,tumor,LNCaP tumor-bearing mice [2]; 4 h after i.v. injection,16.40 ± 6.88 %ID g^−1
same,urine,LNCaP tumor-bearing mice [2]; 4 h after i.v. injection,95.47 ± 3.07 %ID
same,T/B (ratio tumor to blood),LNCaP tumor-bearing mice [2]; 6 h after i.v. injection,131.2
same,T/K (ratio tumor to kidneys),LNCaP tumor-bearing mice [2]; 6 h after i.v. injection,8.4
same,T/M (ratio tumor to muscle),LNCaP tumor-bearing mice [2]; 6 h after i.v. injection,983.7
same,blood,LNCaP tumor-bearing mice [2]; 6 h after i.v. injection,0.06 ± 0.01 %ID g^−1
same,kidneys,LNCaP tumor-bearing mice [2]; 6 h after i.v. injection,0.98 ± 0.38 %ID g^−1
same,large intestine,LNCaP tumor-bearing mice [2]; 6 h after i.v. injection,0.20 ± 0.02 %ID g^−1
same,liver,LNCaP tumor-bearing mice [2]; 6 h after i.v. injection,0.31 ± 0.07 %ID g^−1
same,muscle,LNCaP tumor-bearing mice [2]; 6 h after i.v. injection,0.01 ± 0.01 %ID g^−1
same,small intestine,LNCaP tumor-bearing mice [2]; 6 h after i.v. injection,0.14 ± 0.11 %ID g^−1
same,spleen,LNCaP tumor-bearing mice [2]; 6 h after i.v. injection,1.05 ± 0.29 %ID g^−1
same,stomach,LNCaP tumor-bearing mice [2]; 6 h after i.v. injection,0.04 ± 0.03 %ID g^−1
same,tumor,LNCaP tumor-bearing mice [2]; 6 h after i.v. injection,8.28 ± 1.97 %ID g^−1
same,urine,LNCaP tumor-bearing mice [2]; 6 h after i.v. injection,96.57 ± 2.44 %ID
same,T/B (ratio tumor to blood),LNCaP tumor-bearing mice [2]; 24 h after i.v. injection,257.6
same,T/K (ratio tumor to kidneys),LNCaP tumor-bearing mice [2]; 24 h after i.v. injection,29.0
same,T/M (ratio tumor to muscle),LNCaP tumor-bearing mice [2]; 24 h after i.v. injection,387.4
same,blood,LNCaP tumor-bearing mice [2]; 24 h after i.v. injection,0.03 ± 0.03 %ID g^−1
same,kidneys,LNCaP tumor-bearing mice [2]; 24 h after i.v. injection,0.30 ± 0.12 %ID g^−1
same,large intestine,LNCaP tumor-bearing mice [2]; 24 h after i.v. injection,0.41 ± 0.15 %ID g^−1
same,liver,LNCaP tumor-bearing mice [2]; 24 h after i.v. injection,0.04 ± 0.01 %ID g^−1
same,muscle,LNCaP tumor-bearing mice [2]; 24 h after i.v. injection,0.02 ± 0.02 %ID g^−1
same,small intestine,LNCaP tumor-bearing mice [2]; 24 h after i.v. injection,0.20 ± 0.20 %ID g^−1
same,spleen,LNCaP tumor-bearing mice [2]; 24 h after i.v. injection,0.12 ± 0.06 %ID g^−1
same,stomach,LNCaP tumor-bearing mice [2]; 24 h after i.v. injection,0.06 ± 0.05 %ID g^−1
same,tumor,LNCaP tumor-bearing mice [2]; 24 h after i.v. injection,8.33 ± 3.09 %ID g^−1
same,urine,LNCaP tumor-bearing mice [2]; 24 h after i.v. injection,94.79 ± 7.51 %ID
same,T/B (ratio tumor to blood),LNCaP tumor-bearing mice [2]; 48 h after i.v. injection,193.0
same,T/K (ratio tumor to kidneys),LNCaP tumor-bearing mice [2]; 48 h after i.v. injection,68.4
same,T/M (ratio tumor to muscle),LNCaP tumor-bearing mice [2]; 48 h after i.v. injection,351.4
same,blood,LNCaP tumor-bearing mice [2]; 48 h after i.v. injection,0.04 ± 0.02 %ID g^−1
same,kidneys,LNCaP tumor-bearing mice [2]; 48 h after i.v. injection,0.12 ± 0.03 %ID g^−1
same,large intestine,LNCaP tumor-bearing mice [2]; 48 h after i.v. injection,0.84 ± 0.56 %ID g^−1
same,liver,LNCaP tumor-bearing mice [2]; 48 h after i.v. injection,0.17 ± 0.07 %ID g^−1
same,muscle,LNCaP tumor-bearing mice [2]; 48 h after i.v. injection,0.02 ± 0.01 %ID g^−1
same,small intestine,LNCaP tumor-bearing mice [2]; 48 h after i.v. injection,0.14 ± 0.07 %ID g^−1
same,spleen,LNCaP tumor-bearing mice [2]; 48 h after i.v. injection,0.97 ± 0.62 %ID g^−1
same,stomach,LNCaP tumor-bearing mice [2]; 48 h after i.v. injection,0.03 ± 0.03 %ID g^−1
same,tumor,LNCaP tumor-bearing mice [2]; 48 h after i.v. injection,8.03 ± 7.31 %ID g^−1
same,urine,LNCaP tumor-bearing mice [2]; 48 h after i.v. injection,97.75 ± 0.34 %ID
same,in vivo CLI tumor visualization,LNCaP tumor-bearing mice [3],excellent tumor visualization
